# Test results from ChEMBL document CHEMBL3044781, “Triterpenoid saponins with antifeedant activities from stem bark of Catunaregam spinosa (Rubiaceae) against Plutella xylostella (Plutellidae)” (2011).
# Test system: Plutella xylostella
# Test: Antifeedant activity against second-instar larval stage of Plutella xylostella (diamondback moth) in cabbage leaf disks assessed as consumed leaf area treated for 10 secs before larval infestation measured within 48 hr by non-choice leaf disc method
# Type: functional
row,SMILES,AFC50
1,CC1(C)CC[C@]2(C(=O)O[C@@H]3O[C@H](CO)[C@@H](O)[C@H](O)[C@H]3O)CC[C@]3(C)C(=CC[C@@H]4[C@@]5(C)CC[C@H](O[C@@H]6O[C@H](CO)[C@@H](O)[C@H](O[C@@H]7O[C@H](CO)[C@@H](O)[C@H](O)[C@H]7O)[C@H]6O[C@@H]6O[C@H](CO)[C@@H](O)[C@H](O)[C@H]6O)C(C)(C)[C@@H]5CC[C@]43C)[C@@H]2C1 [ARALIA-SAPONIN V],5467.82 µg/mL
2,CC1(C)CC[C@]2(C(=O)O[C@@H]3O[C@H](CO)[C@@H](O)[C@H](O)[C@H]3O)CC[C@]3(C)C(=CC[C@@H]4[C@@]5(C)CC[C@H](O[C@@H]6O[C@H](CO)[C@@H](O)[C@H](O[C@@H]7O[C@H](CO)[C@@H](O)[C@H](O)[C@H]7O)[C@H]6O[C@@H]6OC[C@@H](O)[C@H](O)[C@H]6O)C(C)(C)[C@@H]5CC[C@]43C)[C@@H]2C1 [ARALIASAPONIN IV],335.54 µg/mL
3,CC1(C)CC[C@]2(C(=O)O)CC[C@]3(C)C(=CC[C@@H]4[C@@]5(C)CC[C@H](O[C@@H]6O[C@H](CO)[C@@H](O)[C@H](O[C@@H]7O[C@H](CO)[C@@H](O)[C@H](O)[C@H]7O)[C@H]6O[C@@H]6OC[C@@H](O)[C@H](O)[C@H]6O)C(C)(C)[C@@H]5CC[C@]43C)[C@@H]2[C@@H]1O [CATUNAROSIDE A],243.23 µg/mL
4,C[C@@H]1O[C@@H](O[C@H]2[C@H](O[C@H]3CC[C@]4(C)[C@H]5CC=C6[C@@H]7CC(C)(C)CC[C@]7(C(=O)O)CC[C@@]6(C)[C@]5(C)CC[C@H]4C3(C)C)O[C@H](CO)[C@@H](O)[C@@H]2O[C@@H]2O[C@H](CO)[C@@H](O)[C@H](O)[C@H]2O)[C@H](O)[C@H](O)[C@H]1O [CATUNAROSIDE B],369.63 µg/mL
5,C[C@@H]1O[C@@H](O[C@H]2[C@H](O[C@H]3CC[C@]4(C)[C@H]5CC=C6[C@@H]7[C@H](O)C(C)(C)CC[C@]7(C(=O)O[C@@H]7O[C@H](CO)[C@@H](O)[C@H](O)[C@H]7O)CC[C@@]6(C)[C@]5(C)CC[C@H]4C3(C)C)O[C@H](CO)[C@@H](O)[C@@H]2O[C@@H]2O[C@H](CO)[C@@H](O)[C@H](O)[C@H]2O)[C@H](O)[C@H](O)[C@H]1O [CATUNAROSIDE C],946.13 µg/mL
6,CC1(C)CC[C@]2(C(=O)O[C@@H]3O[C@H](CO)[C@@H](O)[C@H](O)[C@H]3O)CC[C@]3(C)C(=CC[C@@H]4[C@@]5(C)CC[C@H](O[C@@H]6O[C@H](CO)[C@@H](O)[C@H](O[C@@H]7O[C@H](CO)[C@@H](O)[C@H](O)[C@H]7O)[C@H]6O[C@@H]6OC[C@@H](O)[C@H](O)[C@H]6O)C(C)(C)[C@@H]5CC[C@]43C)[C@@H]2[C@@H]1O [CATUNAROSIDE],608.42 µg/mL
7,CC1(C)CC[C@]2(C(=O)O)CC[C@]3(C)C(=CC[C@@H]4[C@@]5(C)CC[C@H](O[C@@H]6O[C@H](CO)[C@@H](O)[C@H](O[C@@H]7O[C@H](CO)[C@@H](O)[C@H](O)[C@H]7O)[C@H]6O[C@@H]6OC[C@@H](O)[C@H](O)[C@H]6O)C(C)(C)[C@@H]5CC[C@]43C)[C@@H]2C1 [SWARTZIATRIOSIDE],106.73 µg/mL
